Here are results for 42 compounds from ChEMBL document CHEMBL3860097, “Synthesis and biological evaluation of C-ring truncated deguelin derivatives as heat shock protein 90 (HSP90) inhibitors” (2016).

Test [1] concerns the target T1, Heat shock protein HSP90 (Homo sapiens) (UniProt P07900+P08238). In words: Inhibition of HSP90 in human H1299 cells assessed as suppression of HIF-1alpha at 100 nM preincubated for 72 hrs followed by incubation under hypoxic condition for 12 hrs by Western blot method relative to control. Type of test: cell-based. For orientation: In western blotting, separated proteins are transferred to a membrane and probed.

The target of test [2] is T1, Heat shock protein HSP90 (Homo sapiens). In words: Inhibition of HSP90 in human H1299 cells assessed as suppression of HIF-1alpha at 10 nM preincubated for 72 hrs followed by incubation under hypoxic condition for 12 hrs by Western blot method relative to control. Type of test: cell-based.
The species entered for test [3] is Homo sapiens. Put plainly: Antiangiogenic activity in HRMEC assessed as inhibition of VEGF-induced cell proliferation under hypoxic condition by measuring [3H]-thymidine incorporation at 100 nM preincubated for 24 hrs followed by [3H]-thymidine addition measured after 6 hrs by liquid scintillation counter. The test is classed as functional. Background: Uptake of a labelled nucleoside into DNA is a usual measure of proliferation.

The species entered for test [4] is Homo sapiens. Put plainly: Antiangiogenic activity in HRMEC assessed as inhibition of VEGF-induced cell migration under hypoxic condition at 100 nM after 4 hrs by hematoxylin and eosin staining-based phase-contrast microscopy. Type of test: functional.
A further test has as its system NCI-H1299. Put plainly: Cytotoxicity against human H1299 cells assessed as decrease in cell viability by MTT assay. Type of test: functional, cell-based. On the technique in general: Tetrazolium assays rely on reduction of a dye to a coloured formazan, in cell work by metabolically active cells.
The nature of test [5]: Cytotoxicity against human H1299 cells assessed as decrease in cell viability at 10 uM by MTT assay relative to control. Type of test: functional, NCI-H1299.
The target of test [6] is T1, Heat shock protein HSP90 (Homo sapiens). In words: Inhibition of HSP90 in human H1299 cells assessed as suppression of HIF-1alpha preincubated for 72 hrs followed by incubation under hypoxic condition for 12 hrs by Western blot method. Type of test: cell-based.

The structures appear in SMILES notation. The source made the active and inactive calls. No cut-off for these calls is given here.

On to `CO/N=C(/c1ccc2c(c1OC)C=CC(C)(C)O2)c1ccnc2cc(OC)c(OC)cc12`, for which the inhibition (commonly the relative decrease from the control value, in per cent) in test [1] was 54.2%.
Same read-out and setting: as for `COc1cc2ccc(C(O)c3ccc4c(c3OC)C=CC(C)(C)O4)nc2cc1OC` (centres undefined), the figure is 86%; as for `COc1cc2nccc(C(=O)c3ccc4c(ccn4C)c3)c2cc1OC`, 86%.
With `COc1cc2cc(C(=O)c3ccc4ncccc4c3)oc2cc1OC`, the inhibition in test [1] was 40.6%.
Turning to `COc1cc2occ(C(=O)c3ccc4c(c3OC)C=CC(C)(C)O4)c2cc1OC`, the results for the inhibition in test [1] and in test [2] were 92.4% and 105%, respectively.
For `CCCC(=O)OC(c1ccc2c(c1OC)C=CC(C)(C)O2)c1ccnc2cc(OC)c(OC)cc12` (centres undefined), the inhibition in test [1] was 90%.
`COc1cc2cc(C(=O)c3ccc4c(c3OC)C=CC(C)(C)O4)oc2cc1OC`: the inhibition in test [1] was determined as 54.1%.
With `COc1cc2cc(/C(=N/O)c3ccc4c(c3OC)C=CC(C)(C)O4)oc2cc1OC`, the inhibition in test [1] turned out to be 70.6%.
For the compound `COc1cc2cc(C(OC(C)=O)c3ccc4ncccc4c3)oc2cc1OC` (centres undefined), the inhibition in test [1] is 56%; in test [2], 88%.
As for `COc1cc2cc(C(OC(C)=O)c3ccc4c(c3OC)C=CC(C)(C)O4)oc2cc1OC` (centres undefined), the inhibition in test [1] is 72.2%.
For the compound `COc1cc2ncnc(C(OC(=O)C3CC3)c3ccc4c(c3OC)C=CC(C)(C)O4)c2cc1OC` (centres undefined), in test [1], the inhibition was found to be 71.9%.
With `COc1cc2c(cc1OC)[C@@H]1C(=O)c3ccc4c(c3O[C@@H]1CO2)C=CC(C)(C)O4`, the results for the inhibition in test [1] and in test [2] were 64% and 94%, respectively. Further, the inhibition result in the test filed under Homo sapiens [3] and in the test filed under Homo sapiens [4] was “Active” in each case.
As to `COc1cc2ccc(C(OC(C)=O)c3ccc4c(c3OC)C=CC(C)(C)O4)nc2cc1OC` (centres undefined), in test [1], the inhibition was determined as 73%.
Consider `COc1cc2nccc(C(OC(C)=O)c3ccc4ncccc4c3)c2cc1OC` (centres undefined), for which, in test [1], the inhibition came out at 82.7%.
For the compound `COc1cc2nccc(C(NC(C)=O)c3ccc4c(c3OC)C=CC(C)(C)O4)c2cc1OC` (centres undefined), in test [1], the inhibition came out at 72.9%.
Regarding `COc1cc2nccc(C(OC(N)=O)c3ccc4c(c3OC)C=CC(C)(C)O4)c2cc1OC` (centres undefined), the inhibition in test [1] was 81.2%.
Same read-out and setting: as for `COc1cc2ncnc(C(OC(C)=O)c3ccc4c(c3OC)C=CC(C)(C)O4)c2cc1OC` (centres undefined), the figure is 88.6%.
`CO/N=C(/c1cc2cc(OC)c(OC)cc2o1)c1ccc2c(c1OC)C=CC(C)(C)O2`: the inhibition in test [1] stood at 66.5%; in test [2], 76.9%.
Consider `COc1cc2cc(C(OC(=O)C3CC3)c3ccc4ncccc4c3)oc2cc1OC` (centres undefined), for which the inhibition in test [1] stood at 115%.
On to `COc1cc2occ(C(OC(C)=O)c3ccc4c(c3OC)C=CC(C)(C)O4)c2cc1OC` (centres undefined), for which, in test [1], the inhibition worked out at 81%.
`COc1cc2nccc(C(SC(C)=O)c3ccc4c(c3OC)C=CC(C)(C)O4)c2cc1OC` (centres undefined): the inhibition in test [1] is 59.3%; in test [2], 74%. Further, the Activity entry with NCI-H1299 is “Dose-dependent effect”; in test [5], below 50%.
As for `COc1cc2nccc(C(O)c3ccc4c(c3OC)C=CC(C)(C)O4)c2cc1OC` (centres undefined), in test [1], the inhibition was 71.5%.
On the same count and under the same terms, as for `COc1cc2nccc(C(O)c3ccc4c(ccn4C)c3)c2cc1OC` (centres undefined), the figure is 102%.
Same read-out and setting: the result for `CCC(=O)OC(c1ccc2c(c1OC)C=CC(C)(C)O2)c1ccnc2cc(OC)c(OC)cc12` (centres undefined) reads 96.4%.
In the case of `COc1cc2nccc(C(N)c3ccc4c(c3OC)C=CC(C)(C)O4)c2cc1OC` (centres undefined), the inhibition in test [1] was determined as 68.9%.
On to `CC(C)c1cc(-c2n[nH]c(=O)n2-c2ccc3c(ccn3C)c2)c(O)cc1O`, for which the inhibition entry in the test filed under Homo sapiens [3] and in the test filed under Homo sapiens [4] was “Active” throughout.
As for `COc1cc2nccc(C(NC(=O)C3CC3)c3ccc4c(c3OC)C=CC(C)(C)O4)c2cc1OC` (centres undefined), the inhibition in test [1] was 85.5%.
For `CO/N=C(\c1cc2cc(OC)c(OC)cc2o1)c1ccc2c(c1OC)C=CC(C)(C)O2`, in test [1], the inhibition worked out at 65.6%.
As for `COc1cc2nccc(C(OC(C)=O)c3ccc4c(ccn4C)c3)c2cc1OC` (centres undefined), the inhibition in test [1] came to 97.2%.
For `COc1cc2nccc(C(OC(=O)C3CC3)c3ccc4c(c3OC)C=CC(C)(C)O4)c2cc1OC` (centres undefined), the inhibition in test [1] was 53.9%; in test [2], 63.3%; in test [6], “Dose-dependent effect”. Moreover, the Activity result in the test with NCI-H1299 is “Dose-dependent effect”; in test [5] it was below 50%. In addition, the inhibition result in the test filed under Homo sapiens [3] and in the test filed under Homo sapiens [4] was “Active” throughout.
`COc1cc2nccc(/C(=N\O)c3ccc4c(c3OC)C=CC(C)(C)O4)c2cc1OC`: the inhibition in test [1] was determined as 64%.
As for `COc1cc2cc(/C(=N\O)c3ccc4c(c3OC)C=CC(C)(C)O4)oc2cc1OC`, in test [1], the inhibition is 117%.
Consider `COc1cc2nccc(C(OC(C)=O)c3ccc4c(c3OC)C=CC(C)(C)O4)c2cc1OC` (centres undefined), for which the inhibition in test [1] is 62.2%; in test [2], 95.4%.
With `COc1cc2nccc(C(OC(C)=O)c3ccc4ncccc4c3OC)c2cc1OC` (centres undefined), the inhibition in test [1] amounted to 67.4%.
Still for that read-out and setting: as for `COc1cc2ccc(C(=O)c3ccc4c(c3OC)C=CC(C)(C)O4)nc2cc1OC`, the figure is 76%; as for `COc1cc2cc(C(O)c3ccc4ncccc4c3)oc2cc1OC` (centres undefined), 102%; as for `COc1cc2ccc(C(OC(=O)C3CC3)c3ccc4c(c3OC)C=CC(C)(C)O4)nc2cc1OC` (centres undefined), 71%.
On to `COc1cc2nccc(C(OC(=O)C3CC3)c3ccc4c(ccn4C)c3)c2cc1OC` (centres undefined), for which the inhibition in test [1] was determined as 85%.
On to `COc1cc2nccc(C(OC(=O)C3CC3)c3ccc4ncccc4c3OC)c2cc1OC` (centres undefined), for which the inhibition in test [1] was found to be 80.5%.
Same read-out and setting: the result for `COc1cc2nccc(C(OC(=O)C3CC3)c3ccc4ncccc4c3)c2cc1OC` (centres undefined) reads 115%.
Still for that read-out and setting: the result for `COc1ccc(CC(=O)c2ccc3c(c2OC)C=CC(C)(C)O3)cc1OC` reads 85.3%.
For `COc1cc2nccc(C(=O)c3ccc4c(c3OC)C=CC(C)(C)O4)c2cc1OC`, the inhibition in test [1] came out at 70.5%.
